Experimental data published in article PMC2963311 (Nature neuroscience, 2008).
Where no end group is shown, it is not given here.

The substances below were run on EGL-6 (assay: GIRK current activation in EGL-6-expressing oocytes). Conditions: single synthetic peptide; X. laevis oocytes coexpressing EGL-6 and GIRKs; whole-cell currents, two-electrode voltage clamp, −80 mV, high-K+ medium (96 mM KCl); Fig. 4d.
Type: cell-based, C. elegans
KSAFVRF-NH2 was tested, and the “agonist activity when applied individually” value (“agonist activity” below) was “could function as agonists when applied individually”. With QPKARSGYIRF-NH2 the “agonist activity” value was “could function as agonists when applied individually”. In the case of KSQYIRF-NH2, the “agonist activity” value is reported as “could function as agonists when applied individually”.
